“And” between values parts separate entries of the source, which are not always exact repeats. Equal entries are not always repeated. Where two headings read alike, the source gives them in different places.
Experiments:
NMDA receptor [1] = assay: [3H]MK-801 binding to well washed rat cortical membranes; settings: [3H]MK-801 2.5 nM, glutamate 0.001 μM and glycine 10 μM, 27° C., two hours, mean of three experiments
Experimental: The formula I compounds were also tested for their ability to inhibit NMDA receptor binding using [^3 H]MK-801 (New England Nuclear, Boston, Mass.). Rat brain cortices were extensively washed to remove endogenous glutamate and glycine. Cortices were homogenized in 20 volumes of ice-cold 0.32M sucrose and centrifuged at 1,000 xg for ten minutes. The supernatant was then centrifuged at 20,000 xg for 20 minutes. The resulting pellet was resuspended in 30 volumes of distilled water and centrifuged at 8,000 xg for 20 minutes. The resulting supernatant was centrifuged at 45,000 xg for 20 minutes and the pellet frozen in liquid nitrogen for at least 24 hours. On the day of the assay, the pellet was thawed at room temperature and resuspended in 30 volumes of ice-cold distilled water and centrifuged at 45,000 xg for 20 minutes. The final pellet was resuspended in 50 mM Tris (pH 7.4)at a concentration of 10 vol/gram wet weight of tissue.
The binding of [^3 H]MK-801 to well washed rat cortical membranes was conducted in the presence of added glutamate (0.001 μM) and glycine (10 μM). Antagonists were incubated with [^3 H]MK-801 (2.5 nM) and membrane aliquots (μg/ml protein)in a final volume of 1 ml at 27° C. for two hours. Nonspecific [^3 H]MK-801 binding was determined in the presence of 100 μM MK-801. Assays were terminated by filtering the samples over Whatman GF/B glass-fiber filters, presoaked in 0.05% polyethyleneimine, followed by a 10 ml ice cold saline wash.
These assays were performed in triplicate, and the mean values of three separate experiments were used to obtain the half maximal effective concentration. Final protein concentrations (0.5 mg/ml)for each assay were determined using the Lowry et al. (1951)method. Lowry, Rosebrough, Farr, and Randall, J. Biol. Chem., 193, 265-275 (1951). Analysis of the data was performed using a four-parameter logistic equation Graphpad Software San Diego, Calif.).

NMDA receptor [2] = assay: [3H]CGS19755 radioligand binding to Triton-X-treated synaptosomal membranes of rat forebrain; parameters: species or system rat (male Sprague-Dawley); settings: [3H]CGS19755 10 nM, ice-bath 30 min, mean, standard error, n=3
Experimental: The formula I compounds were tested for their ability to inhibit NMDA receptor binding to rat membranes in a radioligand binding assay using [^3 H]CGS19755. For these radioligand binding assays, male Sprague-Dawley rats were used. Displacement of the specific binding [^3 H]CGS19755 (10 nM)to Triton-X-treated synaptosomal membranes of rat forebrain was used to determine NMDA receptor affinity. Non-specific binding was determined using 10 μM L-glutamate. Samples were incubated in an ice-bath for 30 minutes, and bound ligand was separated from the free ligand by rapid filtration through WHATMAN GF/B glass fiber filters. Murphy et al, British J. Pharmacol., 95, 932-938 (1988). The concentration of the formula I compound that inhibited 50% binding (IC50, mean standard error, n=3)was calculated by linear regression of displacement data transformed to the Hill equation as described by Bennett. Bennett, Neurotransmitter Receptor Binding, 57-90 (1978).

NMDA receptor [3] = assay: Antagonism of NMDA-induced depolarization of rat cortical wedges; format: cell-based; settings: for NMDA receptor antagonist activity: cortical wedge assay, Table II
Experimental: The depolarization of rat cortical wedges was used to test the selectivity and potency of the formula I compounds as NMDA antagonist using a technique similar to that described by Harrison and Simmonds. Harrison and Simmonds, Bri. J. Pharmacol., 84, 381-391 (1984). Generally, 4-ml aliguots of NMDA (40 μM)were superfused (2 ml/min)on the gray matter at intervals of 15 to 20 minutes until stable responses where obtained. The tissue was then exposed for 15 minutes to various concentrations of the formula I compounds before retesting the agonist. The IC50 values were calculated from linear regression of log dose-response curves, each point the mean of at least three observations on separate slices from more than one animal.
The cortical wedge assay distinguishes between agonist and antagonist activity.

formalin model = settings: mouse; cited from earlier work
focal cerebral ischemia [4] = settings: rats; cited from earlier work
focal cerebral ischemia [5] = settings: cats; cited from earlier work
[6] = system: warm water tail withdrawal; settings: rhesus monkeys; cited from earlier work
CNS ischemia = settings: rabbits; cited from earlier work

Structure (SMILES)	IC50 (NMDA receptor [1]) [µM]	IC50 (NMDA receptor [2])	IC50 (NMDA receptor [3]; 0.25 h) [µM]	other results
O=C(O)CCC1CC[C@H]2CN[C@H](C(=O)O)[C@@H]12 (stereo partly drawn) [Compound 20, (1SR,2SR,5RS,8SR)-3-Aza-8-(2-carboxyethyl)bicyclo[3.3.0]octane-2-carboxylic Acid and (1SR,2SR,5RS,8RS)-3-Aza-8-(2-carboxyethyl)bicyclo[3.3.0]octane-2-carboxylic Acid]	47.3 ± 21	1.44 ± 0.04 µM	> 100	–
O=C(O)[C@H]1NC[C@@H]2CCC(CCOCc3nn[nH]n3)[C@@H]21 (stereo partly drawn) [Compound 23, (1SR,2SR, 5RS,8SR)-3-Aza-8-(2-(1(2)H-tetrazol-5-ylmethoxy)ethyl)bicyclo[3.3.0]octane-2-carboxylic Acid and (1SR,2SR,5RS,8RS)-3-Aza-8-(2-(1(2)H-tetrazol-5-ylmethoxy)ethyl)bicyclo[3.3.0]octane-2-carboxylic Acid]	> 100	> 100 µM	–	IC50 (NMDA receptor [3]; NMDA 40 μM, 15 min exposure to compound, rat cortical wedges, read-out: Antagonism of Cortical Wedge Depolarization IC50): > 100 µM
NC(CCCP(=O)(O)O)C(=O)O (racemic) [DL-AP5]	–	–	–	analgesia in formalin model (formalin model): analgesic
O=C(O)CC1CC[C@H]2CN[C@H](C(=O)O)[C@@H]12 (stereo partly drawn) [Compound 13, (1SR,2SR,5RS,8SR)-3-Aza-8-(carboxymethyl)bicyclo[3.3.0]octane-2-carboxylicAcid and (1SR,2SR,5RS,8RS)-3-Aza-8-(carboxymethyl)bicyclo[3.3.0]octane-2-carboxylicAcid]	39 ± 8.7	1.19 ± 0.54 µM	52 ± 8	–
O=C(O)[C@H]1NC[C@@H]2CCC(CCSc3nn[nH]n3)[C@@H]21 (stereo partly drawn) [Compound 22, (1SR,2SR,5RS,8SR)-3-Aza-8-(2-(1(2)H-tetrazole-5-thio)ethyl)bicyclo[3.3.0]octane-2-carboxylic Acid and (1SR,2SR,5RS,8RS)-3-Aza-8-(2-(1(2)H-tetrazole-5-thio)ethyl)bicyclo[3.3.0]octane-2-carboxylic Acid]	> 100	26.1 ± 6.13 µM	–	–
C[C@]12N[C@H](Cc3ccccc31)c1ccccc12 [dizocilpine]	–	–	–	protection in focal cerebral ischemia model (focal cerebral ischemia [4]): provided protection; protection in focal cerebral ischemia model (focal cerebral ischemia [5]): provided protection
O=C(O)[C@H]1NC[C@@H]2CC[C@@H](Cc3nn[nH]n3)[C@@H]21 (relative stereo) [Compound 38, (1SR,2SR,5RS,8SR)-3-Aza-8-((1(2)H-tetrazol-5-yl)methyl)bicyclo[3.3.0]octane-2-carboxylic Acid]	47.3 ± 7.62	3.13 ± 0.58 µM	> 100	–
O=C(O)[C@H]1CN(C/C=C/P(=O)(O)O)CCN1 [D-(-)CPP-ene]	–	–	–	protection in focal cerebral ischemia model (focal cerebral ischemia [5]): provided protection
O=C(O)[C@H]1NC[C@@H]2CCC(Cc3nn[nH]n3)[C@@H]21 (stereo partly drawn) [Compound 12, (1SR,2SR,5RS,8SR)-3-Aza-8-((1(2)H-tetrazol-5-yl)methyl)bicyclo[3.3.0]octane-2-carboxylic Acid and (1SR,2SR,5RS,8RS)-3-Aza-8-((1(2)H-tetrazol-5-yl)methyl)bicyclo[3.3.0]octane-2-carboxylic Acid]	49.7 ± 14.2	0.73 µM and < 1 µM	9.5 ± 5	NMDA receptor antagonist activity (NMDA receptor [3]): NMDA receptor antagonists
O=C(O)[C@@H]1C[C@H](CP(=O)(O)O)CCN1 [CGS 19755]	–	–	–	protection in focal cerebral ischemia model (focal cerebral ischemia [4]): provided protection; analgesia in warm water tail withdrawal procedure [6]: analgesic
O=C(O)[C@H]1NC[C@@H]2CCC(OCc3nn[nH]n3)[C@@H]21 (stereo partly drawn) [Compound 27, (1SR,2SR,5RS,8SR)-3-Aza-8-((1(2)H-tetrazol-5-yl)methoxy)bicyclo[3.3.0]octane-2-carboxylic Acid and (1SR,2SR,5RS,8RS)-3-Aza-8-((1(2)H-tetrazol-5-yl)methoxy)bicyclo[3.3.0]octane-2-carboxylic Acid]	> 100	5.66 ± 0.15 µM	–	–
O=C(O)[C@H]1NC[C@@H]2CCC(CCc3nn[nH]n3)[C@@H]21 (stereo partly drawn) [Compound 21, (1SR,2SR,5RS,8SR)-3-Aza-8-(2-(1 (2)H-tetrazol-5-yl)ethyl)bicyclo[3.3.0]octane-2-carboxylic Acid and (1SR,2SR,5RS,8RS)-3-Aza-8-(2-(1(2)H-tetrazol-5-yl)ethyl)bicyclo[3.3.0]octane-2-carboxylic Acid]	37.7 ± 9.3	4.5 ± 0.98 µM	> 100	–
O=C(O)C1NCC2CCC(CSc3nn[nH]n3)C21 (stereo not drawn) [Compound 32, (1SR,2SR,5RS,8SR)-3-Aza-8-((1(2)H-tetrazole-5-thio)methyl)bicyclo[3.3.0]octane-2-carboxylic Acid]	27.8 ± 12.2	1.31 ± 0.48 µM	59.7 ± 10	–
O=C(O)[C@H]1C[C@@H](Cc2nn[nH]n2)CCN1 (relative stereo) [LY233053]	–	–	–	protection in CNS ischemia model (CNS ischemia): provided protection
O=C(O)[C@H]1NC[C@@H]2CC[C@H](Cc3nn[nH]n3)[C@@H]21 (relative stereo) [Compound 33, (1SR,2SR,5RS,8RS)-3-Aza-8-((1(2)H-tetrazol-5-yl)methyl)bicyclo[3.3.0]octane-2-carboxylic Acid]	36.6 ± 7	0.67 µM and < 1 µM	28.6 ± 5.6	NMDA receptor antagonist activity (NMDA receptor [3]): NMDA receptor antagonists

Source: patent publication US5641798A, “Bicyclic compounds and their use as excitatory amino acid receptor antagonists” (Eli Lilly and Company, priority 1995, dated 1997)
